Values of other authors in US20110059175A9, “ENHANCING SOLUBILITY AND DISSOLUTION RATE OF POORLY SOLUBLE DRUGS” (K.U.LEUVEN RESEARCH AND DEVELOPMENT, priority 2006, published 2011).
Converted amounts (≈) assume the structure as drawn. Where two headings read alike, the source gives them in different places.

Key:
[1] = not given; remark: listed apart in the source
[2] = determined; Peeters et al., 2002
[3] = not given; remark: listed apart in the source

## NC(=O)N1c2ccccc2C=Cc2ccccc21 [Carbamazepine, 5H-dibenz[b,f]azepine-5-carboxamide]
water
  solubility in water: practically insoluble

## C#C[C@]1(O)CC[C@H]2[C@@H]3CCC4=Cc5oncc5C[C@]4(C)[C@H]3CC[C@@]21C [Danazol, 17a-Pregna-2,4-dien-20-yno[2,3-d]-isoxazol-17-ol]
[1]; administered orally
  time at which peak concentrations occur: ≤ 2 h
[1]; doubling the dose
  increase in plasma concentration on doubling the dose: 30-40%
[1]; in vivo
  half-life: 4 to 5 h

## CCC(C)n1ncn(-c2ccc(N3CCN(c4ccc(OCC5COC(Cn6cncn6)(c6ccc(Cl)cc6Cl)O5)cc4)CC3)cc2)c1=O (centres unmarked) [Itraconazole]
[2]
  pKa4: 4.0
Neutral pH
  aqueous solubility (S): ~0.001 µg/mL (≈ 0.00142 µM)
pH 1
  aqueous solubility (S): 4 µg/mL (≈ 5.67 µM)
[3]
  permeability: adequate
